# System: Plasmodium berghei
# Experiment: Antimalarial activity against Plasmodium berghei
# Assay type: functional
row,SMILES,log(1/C)
1,OC(CC1CCCCN1)c1cc2cc(C(F)(F)F)cc(C(F)(F)F)c2c2cc(Cl)c(Cl)cc12 (stereo not drawn),4.47
2,CCCCN(CCCC)CC(O)c1cc(-c2ccc(Cl)cc2)nc(-c2ccc(C(F)(F)F)cc2)c1 (stereo not drawn),3.43
3,CCCCN(CCCC)CC(O)c1cc(-c2ccccc2)nc2ccc(OC)cc12 (stereo not drawn),2.89
4,CCCCN(CCCC)CC(O)c1cc2ccc(Cl)cc2nc1-c1ccc(Cl)cc1 (stereo not drawn),2.2
5,OC(CC1CCCCN1)c1cc(-c2ccc(Cl)cc2)nc2c(C(F)(F)F)cccc12 (stereo not drawn),4.45
6,Cc1ccc2c(C(O)CC3CCCCN3)cc3ccccc3c2c1 (stereo not drawn),2.83
7,CCCCN(CCCC)CCC(O)c1cc2c(Cl)cc(Cl)cc2c2cc(C(F)(F)F)ccc12 (stereo not drawn) [HALOFANTRINE],4.47
8,CCCCCCCN(CCCCCCC)CC(O)c1cc2cc(Cl)cc(Cl)c2nc1-c1ccc(Cl)cc1 (stereo not drawn),2.43
9,OC(CC1CCCCN1)c1cc(Oc2ccc(Cl)cc2)nc2ccccc12 (stereo not drawn),2.68
10,OC(CC1CCCCN1)c1cc2c(Cl)cc(Cl)cc2c2ccc(Cl)cc12 (stereo not drawn),3.79
11,NC(=O)c1cc(C(O)CC2CCCCN2)c2cccc(C(F)(F)F)c2n1 (stereo not drawn),2.42
12,CCCCN(CCCC)CC(O)c1cc(Cl)cc2cc3ccccc3cc12 (stereo not drawn),2.72
13,CCCCCCCN(CCCCCCC)CC(O)c1cc2ccc(Cl)cc2c2cc(OC)ccc12 (stereo not drawn),2.98
14,CCCCCCN(CCCCCC)CC(O)c1cc(-c2ccc(Cl)cc2)nc2c(Cl)cccc12 (stereo not drawn),3.32
15,OC(CC1CCCCN1)c1cc2cc(Cl)cc(Cl)c2c2cc(C(F)(F)F)ccc12 (stereo not drawn),4.43
16,CC[C@H]1CN2CC[C@H]1C[C@H]2[C@H](O)c1ccnc2ccc(OC)cc12 [HYDROQUININE],2.04
17,CCCCCCCN(CCCCCCC)CC(O)c1c(Br)ccc2c1ccc1ccccc12 (stereo not drawn),2.5
18,Cc1ccc(-c2cc(C(O)CN3CCCCC3)c3cc(C)ccc3n2)cc1 (stereo not drawn),2.42
19,CCCCCCN(CCCCCC)CC(O)c1cc(-c2ccc(OC)cc2)nc2c(Cl)cc(OC)cc12 (stereo not drawn),3.15
20,OC(CC1CCCCN1)c1cc(C(F)(F)F)nc2ccc(F)cc12 (stereo not drawn),2.33
21,CCCCCCCN(CCCCCCC)CC(O)c1cc2c(Cl)cc(Cl)cc2c2sccc12 (stereo not drawn),2.89
22,CCCCN(CCCC)CC(O)c1cc2ccc(Cl)cc2c2cc(OC)ccc12 (stereo not drawn),2.49
23,Cc1cc(C)c2nc(Nc3ccc(Cl)cc3)cc(C(O)CC3CCCCN3)c2c1 (stereo not drawn),2.74
24,CCCCN(CCCC)CC(O)c1cc(C(C)(C)C)nc2ccc(Cl)cc12 (stereo not drawn),2.91
25,OC(CC1CCCCN1)c1cc2ccc(Cl)cc2c2cc(Cl)ccc12 (stereo not drawn),3.5

row,SMILES,log(1/C)
1,CCCCN(CCCC)CC(O)c1cc2ccc(Cl)cc2c2c(Cl)cc(Cl)cc12 (stereo not drawn),4.21
2,CCOCCN(CCOCC)CC(O)c1cc(-c2ccc(Cl)c(Cl)c2)nc2ccc(OC)cc12 (stereo not drawn),2.83
3,OC(CC1CCCCN1)c1cc2ccc(Cl)cc2c2cc(C(F)(F)F)ccc12 (stereo not drawn),4.09
4,CCCCN(CCCC)CC(O)c1cc2cc(Cl)cc(Cl)c2c2cc(Cl)ccc12 (stereo not drawn),4.21
5,Cc1cc(C)c2nc(C(F)(F)F)cc(C(O)CC3CCCCN3)c2c1 (stereo not drawn),2.93
6,CCCCN(CCCC)CC(O)c1cc2c(Cl)cc(Cl)cc2c2cnccc12 (stereo not drawn),2.94
7,CCCCN(CCCC)CC(O)c1cc2c(Br)cc(Br)cc2c2cc(Br)ccc12 (stereo not drawn),4.19
8,CCN(CC)CC(O)c1cc(-c2ccc(Cl)cc2)nc(-c2ccc(Cl)cc2)c1 (stereo not drawn),3.19
9,CCCCN(CCCC)CC(O)c1cc2cc(Cl)c(Cl)cc2c2c(Cl)cc(Cl)cc12 (stereo not drawn),4.18
10,CCCCCCCN(CCCCCCC)CC(O)c1cc2ccccc2c2c(Cl)cccc12 (stereo not drawn),3.09
11,CCCCCCCN(CCCCCCC)CC(O)c1c(OC)c2cc(Br)ccc2c2ccc(Br)cc12 (stereo not drawn),3.35
12,CCCCN(CCCC)CC(O)c1cc(-c2cc(OC)c(OC)c(OC)c2)nc2c1cc(Cl)c1ccccc12 (stereo not drawn),3.32
13,CCCCCCCN(CCCCCCC)CCCC(O)c1cc2ccc(C(F)(F)F)cc2c2cc(C(F)(F)F)ccc12 (stereo not drawn),3.72
14,CCCCCCCCN(CCCCCCCC)CC(O)c1cc(-c2ccc(CC)c(CC)c2)cc2ccc(C)cc12 (stereo not drawn),3.15
15,CCCCNCCC(O)c1cc2c(Cl)cc(Cl)cc2c2cc(C(F)(F)F)ccc12 (stereo not drawn),4.62
16,OC(CNC1CCC1)c1cc(-c2ccc(C(F)(F)F)cc2)nc(-c2ccc(C(F)(F)F)cc2)c1 (stereo not drawn),3.85
17,OC(CC1CCCCN1)c1cc2cc(Cl)ccc2c2ccc(C(F)(F)F)cc12 (stereo not drawn),3.25
18,OC(CC1CCCCN1)c1cc2ccc(Cl)c(Cl)c2c2cc(C(F)(F)F)ccc12 (stereo not drawn),4.4
19,CCCCN(CCCC)CC(O)c1c(Cl)cc(Cl)c2nc(-c3ccc(Cl)cc3)ccc12 (stereo not drawn),3.6
20,CN1CCCC1CC(O)c1cc2ccc(Cl)cc2c2cc(Cl)ccc12 (stereo not drawn),3.46
21,CCCCN(CCCC)CC(O)c1cc(Oc2ccc(Cl)cc2)c(Br)c2cc(Cl)ccc12 (stereo not drawn),2.62
22,CCCCN(CCCC)CC(O)c1cc(-c2ccc(Cl)cc2)nc2c(C(F)(F)F)cccc12 (stereo not drawn),3.69
23,CCCCCCCN(CCCCCCC)CC(O)c1cc2ccc(C(F)(F)F)cc2c2sccc12 (stereo not drawn),3.36
24,CCCCN(CCCC)CC(O)c1cccc2cc3cc(Cl)c(Cl)cc3cc12 (stereo not drawn),2.48
25,CCCCN(CCCC)CC(O)c1cc(-c2ccc(Cl)cc2)nc2cc(I)ccc12 (stereo not drawn),3.43

row,SMILES,log(1/C)
1,CCCCN(CCCC)CC(O)c1cc(/C=C/c2ccc(C(F)(F)F)cc2)nc(C(=O)c2ccc(C(F)(F)F)cc2)c1 (stereo not drawn),3.91
2,CCCCCCCN(CCCCCCC)CC(O)c1cc2sccc2c2ccsc12 (stereo not drawn),2.58
3,Cc1ccc(-c2cc(C(O)CC3CCCCN3)c3cc(F)ccc3n2)cc1 (stereo not drawn),2.34
4,CCCCN(CCCC)CC(O)c1cc(-c2ccc(C)cc2)nc2c(C)cc(C)cc12 (stereo not drawn),2.72
5,OC(C[N+]12CCC(CC1)CC2)c1cc2ccc(Cl)cc2c2cc(Cl)ccc12 (stereo not drawn),2.98
6,CCCCN(CCCC)CC(O)c1cc2c(Cl)cc(Cl)cc2c2cc(Cl)sc12 (stereo not drawn),3.53
7,CCCCCCCN(CCCCCCC)CC(O)c1cc2ccc(F)cc2c2ccccc12 (stereo not drawn),2.32
8,CCCCCCCN(CCCCCCC)CC(O)c1cc(Cl)cc2cc3ccccc3cc12 (stereo not drawn),3.1
9,CCCCCNCC(O)c1cc(-c2ccc(C(F)(F)F)cc2)nc(-c2ccc(C(F)(F)F)cc2)c1 (stereo not drawn),4.17
10,CCCCN(CCCC)CC(O)c1c(Br)c2cc(Br)ccc2c2ccc(Br)cc12 (stereo not drawn),3.09
11,OC(CC1CCCCN1)c1cc2ccccc2c2ccccc12 (stereo not drawn),2.53
12,CCCCN1CCCCC1CC(O)c1cc2ccccc2c2cc(Br)ccc12 (stereo not drawn),3.22
13,OC(CC1CCCCN1)c1cc2cc(Cl)ccc2c2ccccc12 (stereo not drawn),2.56
14,CCCCN(CCCC)CC(O)c1cc(C(=O)c2ccc(Cl)cc2)cc2c(Cl)cc(Cl)cc12 (stereo not drawn),2.66
15,Cc1ccc(-c2cc(C(O)CC3CCCCN3)c3cccc(C(F)(F)F)c3n2)cc1 (stereo not drawn),3.94
16,OC(CC1CCCCN1)c1cc(C(F)(F)F)nc2cc(C(F)(F)F)ccc12 (stereo not drawn),4.05
17,CCCCCCN(CCCCCC)CC(O)c1cc(-c2ccc(Cl)cc2)nc2cc(Cl)ccc12 (stereo not drawn),3.28
18,CCCCN(CCCC)CC(O)c1cc(-c2c(Cl)cccc2Cl)nc2c(Cl)cc(Cl)cc12 (stereo not drawn),2.41
19,CCN(CC)CC(O)c1cc(-c2ccc(OC)c(OC)c2)nc2cc(Cl)ccc12 (stereo not drawn),2.81
20,OC(CCC1CCCCN1)c1cc(C(F)(F)F)nc2c(C(F)(F)F)cccc12 (stereo not drawn),3.36
21,CCCCCCCN(CCCCCCC)CC(O)c1cc(-c2ccc(Cl)cc2)cc2cc(Cl)c(OC)cc12 (stereo not drawn),3.31
22,CCCCCCCN(CCCCCCC)CC(O)c1c(Br)c2ccccc2c2ccccc12 (stereo not drawn),3.33
23,CCCCCCCN(CCCCCCC)CC(O)c1cc2ccc(C(F)(F)F)cc2c2cc(Cl)sc12 (stereo not drawn),3.38
24,CCCCN(CCCC)CC(O)c1cc(C(C)(C)C)nc2c1cc(Cl)c1ccccc12 (stereo not drawn),2.98
25,CCCCCCCN(CCCCCCC)CC(O)c1cc2ccc(Cl)cc2c2ncccc12 (stereo not drawn),2.48

row,SMILES,log(1/C)
1,CCCCN(CCCC)CC(O)c1cc(Cl)cc2c1-c1ccc(Cl)cc1C2=O (stereo not drawn),3.39
2,CCCCN(CCCC)CC(O)c1ccc(Cl)c2cc3cccc(Cl)c3cc12 (stereo not drawn),3.39
3,CCCCCCCN(CCCCCCC)CC(O)c1cc2ccc(C(F)(F)F)cc2c2ccsc12 (stereo not drawn),2.69
4,CC(C)(C)NCC(O)c1cc(C(F)(F)F)nc2c(C(F)(F)F)cccc12 (stereo not drawn),2.64
5,CCCCCCCN(CCCCCCC)CCC(O)c1cc2ccc(C(F)(F)F)cc2c2cc(C(F)(F)F)ccc12 (stereo not drawn),3.2
6,CCCNCC(O)c1cc(-c2ccc(C(F)(F)F)cc2)nc(-c2ccc(C(F)(F)F)cc2)c1 (stereo not drawn),4.03
7,CCCCN(CCCC)CC(O)c1cc2c(Cl)cc(Cl)cc2c2sccc12 (stereo not drawn),3.28
8,COc1ccc(-c2cc(C(O)CC3CCCCN3)c3cc(C)ccc3n2)cc1 (stereo not drawn),3
9,CCCCCCCN(CCCCCCC)CC(O)c1c2ccccc2c(Cl)c2ccccc12 (stereo not drawn),3.7
10,COc1ccc(-c2cc(C(O)CC3CCCCN3)c3cccc(C(F)(F)F)c3n2)cc1 (stereo not drawn),3.88
11,CN1CCN(CC(O)c2cc(-c3ccc(F)cc3)nc3cc(F)ccc23)CC1 (stereo not drawn),2.27
12,CCCCCN(CCCCC)CC(O)c1cc(-c2ccc(Cl)cc2)nc(-c2ccc(Cl)cc2)c1 (stereo not drawn),3.13
13,CCCCN(CCCC)CC(O)c1cc(-c2ccc(Cl)c(Cl)c2)cc2cc(Cl)ccc12 (stereo not drawn),4.81
14,CCCCN(CCCC)CC(O)c1cc(-c2ccc(Cl)cc2)nc2c(Cl)cc(Cl)cc12 (stereo not drawn),4.03
15,CCCCN(CCCC)CCC(O)c1cc(-c2ccc(C(F)(F)F)cc2)nc(-c2ccc(C(F)(F)F)cc2)c1 (stereo not drawn),4.57
16,OC(CC1CCCCN1)c1cc(-c2ccc(Cl)cc2)nc(-c2ccc(Cl)cc2)c1 (stereo not drawn),3.83
17,CCN(CC)CC(O)c1cc(-c2ccc(Cl)cc2)cc2ccccc12 (stereo not drawn),3.51
18,CCCCN(CCCC)CC(O)c1c2cccc(Cl)c2cc2c(Cl)cccc12 (stereo not drawn),2.76
19,CCCCCN(CCCCC)CC(O)c1cc(-c2ccc(C(F)(F)F)cc2)nc(-c2ccc(C(F)(F)F)cc2)c1 (stereo not drawn),3.97
20,CCCCCCCN(CCCCCCC)CC(O)c1cc2cccc(Cl)c2c2ccccc12 (stereo not drawn),2.82
21,CCCCN(CCCC)CC(O)c1cc2cc(Br)ccc2c2cc(Br)ccc12 (stereo not drawn),4.17
22,CCCCCCCCNCC(O)c1cc(-c2ccc(C(F)(F)F)cc2)nc(-c2ccc(C(F)(F)F)cc2)c1 (stereo not drawn),3.76
23,CN(Cc1ccccc1)CC(O)c1cc(-c2cccs2)nc2cccc(Br)c12 (stereo not drawn),2.26
